Source: US11987588B2, “Modulators of the beta-3 adrenergic receptor useful for the treatment or prevention of heart failure and disorders related thereto” (Arena Pharmaceuticals, Inc., priority 2017, dated 2024)

Target: Beta-3 Adrenergic Receptor (Homo sapiens (Human), UniProt P13945)
Test: Homogeneous Time-Resolved Fluorescence (HTRF) cAMP antagonist assay, IC50 determination
Type: cell-based
Settings: CHO-K1 cells stably expressing recombinant receptor, isoproterenol at EC90
Procedure, shortened: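 In this functional readout, recombinant CHO-K1 cells received compound, then isoproterenol at its EC90. After 1 h at room temperature, cAMP levels were determined by HTRF using an on-plate standard curve, and IC50 values were fitted.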

Chain of Beta-3 Adrenergic Receptor (P13945 whole entry, species assumed): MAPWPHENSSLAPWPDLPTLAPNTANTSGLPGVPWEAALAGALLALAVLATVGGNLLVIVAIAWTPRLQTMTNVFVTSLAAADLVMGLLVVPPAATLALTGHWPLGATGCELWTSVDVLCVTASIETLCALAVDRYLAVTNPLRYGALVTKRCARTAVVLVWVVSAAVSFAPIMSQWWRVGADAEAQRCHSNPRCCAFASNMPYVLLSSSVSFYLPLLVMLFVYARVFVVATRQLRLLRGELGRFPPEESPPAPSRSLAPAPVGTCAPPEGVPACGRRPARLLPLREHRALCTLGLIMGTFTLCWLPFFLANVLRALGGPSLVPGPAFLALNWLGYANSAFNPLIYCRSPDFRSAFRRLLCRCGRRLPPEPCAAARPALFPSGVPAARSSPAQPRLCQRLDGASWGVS

Point of comparison: CNS(=O)(=O)c1cccc(OC[C@@H](O)CNC2COC3(CCN(S(=O)(=O)c4cc(F)ccc4OC)CC3)C2)c1 (stereo partly drawn) [Compound 238, 3-((2S)-3-(8-(5-fluoro-2-methoxyphenylsulfonyl)-1-oxa-8-azaspiro[4.5]decan-3-ylamino)-2-hydroxypropoxy)-N-methylbenzenesulfonamide], IC50 38.4 nM. Against it:
- CNS(=O)(=O)c1cccc(OC[C@@H](O)CNC2COC3(CCN(S(=O)(=O)c4ccc5c(ccn5C)c4)CC3)C2)c1 (stereo partly drawn) [Compound 221, 3-((2S)-2-hydroxy-3-(8-(1-methyl-1H-indol-5-ylsulfonyl)-1-oxa-8-azaspiro[4.5]decan-3-ylamino)propoxy)-N-methylbenzenesulfonamide] — 4-fold lower, 9.58 nM
- CNS(=O)(=O)c1cccc(OC[C@@H](O)CNC2COC3(CCN(S(=O)(=O)c4ccc(OC)c5c4CCCC5)CC3)C2)c1 (stereo partly drawn) [Compound 222, 3-((2S)-2-hydroxy-3-(8-(4-methoxy-5,6,7,8-tetrahydronaphthalen-1-ylsulfonyl)-1-oxa-8-azaspiro[4.5]decan-3-ylamino)propoxy)-N-methylbenzenesulfonamide] — 2.8-fold higher, 109 nM
- CNS(=O)(=O)c1cccc(OC[C@@H](O)CNC2COC3(CCN(S(=O)(=O)c4ccc5c(Cl)cccc5c4)CC3)C2)c1 (stereo partly drawn) [Compound 223, 3-((2S)-3-(8-(5-chloronaphthalen-2-ylsulfonyl)-1-oxa-8-azaspiro[4.5]decan-3-ylamino)-2-hydroxypropoxy)-N-methylbenzenesulfonamide] — 2.8-fold lower, 13.6 nM
- CCNS(=O)(=O)c1cccc(OC[C@@H](O)CNC2COC3(CCN(S(=O)(=O)c4cccc(Cl)c4)CC3)C2)c1 (stereo partly drawn) [Compound 224, 3-((2S)-3-(8-(3-chlorophenylsulfonyl)-1-oxa-8-azaspiro[4.5]decan-3-ylamino)-2-hydroxypropoxy)-N-ethylbenzenesulfonamide] — within 1.5-fold, 33.1 nM
- CCNS(=O)(=O)c1cccc(OC[C@@H](O)CNC2COC3(CCN(S(=O)(=O)c4ccc(OC)c(C)c4)CC3)C2)c1 (stereo partly drawn) [Compound 225, N-ethyl-3-((2S)-2-hydroxy-3-(8-(4-methoxy-3-methylphenylsulfonyl)-1-oxa-8-azaspiro[4.5]decan-3-ylamino)propoxy)benzenesulfonamide] — 4.8-fold higher, 186 nM
- CCNS(=O)(=O)c1cccc(OC[C@@H](O)CNC2COC3(CCN(S(=O)(=O)c4cc(C)ccc4F)CC3)C2)c1 (stereo partly drawn) [Compound 226, N-ethyl-3-((2S)-3-(8-(2-fluoro-5-methylphenylsulfonyl)-1-oxa-8-azaspiro[4.5]decan-3-ylamino)-2-hydroxypropoxy)benzenesulfonamide] — 4-fold higher, 155 nM
- CCNS(=O)(=O)c1cccc(OC[C@@H](O)CNC2COC3(CCN(S(=O)(=O)c4ccc(Br)c(C)c4)CC3)C2)c1 (stereo partly drawn) [Compound 227, 3-((2S)-3-(8-(4-bromo-3-methylphenylsulfonyl)-1-oxa-8-azaspiro[4.5]decan-3-ylamino)-2-hydroxypropoxy)-N-ethylbenzenesulfonamide] — within 1.5-fold, 31.3 nM
- CCNS(=O)(=O)c1cccc(OC[C@@H](O)CNC2COC3(CCN(S(=O)(=O)c4ccc5c(c4)NC(=O)CO5)CC3)C2)c1 (stereo partly drawn) [Compound 228, N-ethyl-3-((2S)-2-hydroxy-3-(8-(3-oxo-3,4-dihydro-2H-benzo[b][1,4]oxazin-6-ylsulfonyl)-1-oxa-8-azaspiro[4.5]decan-3-ylamino)propoxy)benzenesulfonamide] — 1.6-fold lower, 24.2 nM
- CCNS(=O)(=O)c1cccc(OC[C@@H](O)CNC2COC3(CCN(S(=O)(=O)c4ccc5nsnc5c4)CC3)C2)c1 (stereo partly drawn) [Compound 229, 3-((2S)-3-(8-(benzo[c][1,2,5]thiadiazol-5-ylsulfonyl)-1-oxa-8-azaspiro[4.5]decan-3-ylamino)-2-hydroxypropoxy)-N-ethylbenzenesulfonamide] — 7.1-fold higher, 272 nM
- CCNS(=O)(=O)c1cccc(OC[C@@H](O)CNC2COC3(CCN(S(=O)(=O)c4cnn(-c5ccccc5)c4C)CC3)C2)c1 (stereo partly drawn) [Compound 230, N-ethyl-3-((2S)-2-hydroxy-3-(8-(5-methyl-1-phenyl-1H-pyrazol-4-ylsulfonyl)-1-oxa-8-azaspiro[4.5]decan-3-ylamino)propoxy)benzenesulfonamide] — 2.2-fold higher, 85.4 nM
- CCNS(=O)(=O)c1cccc(OC[C@@H](O)CNC2COC3(CCN(S(=O)(=O)c4ccc5c(c4)CCCC5)CC3)C2)c1 (stereo partly drawn) [Compound 231, N-ethyl-3-((2S)-2-hydroxy-3-(8-(5,6,7,8-tetrahydronaphthalen-2-ylsulfonyl)-1-oxa-8-azaspiro[4.5]decan-3-ylamino)propoxy)benzenesulfonamide] — 1.9-fold higher, 72.6 nM
- CCNS(=O)(=O)c1cccc(OC[C@@H](O)CNC2COC3(CCN(S(=O)(=O)c4c(C)noc4C)CC3)C2)c1 (stereo partly drawn) [Compound 232, 3-((2S)-3-(8-(3,5-dimethylisoxazol-4-ylsulfonyl)-1-oxa-8-azaspiro[4.5]decan-3-ylamino)-2-hydroxypropoxy)-N-ethylbenzenesulfonamide] — 4.9-fold higher, 188 nM
- CCNS(=O)(=O)c1cccc(OC[C@@H](O)CNC2COC3(CCN(S(=O)(=O)c4ccc(-c5ccccc5)s4)CC3)C2)c1 (stereo partly drawn) [Compound 233, N-ethyl-3-((2S)-2-hydroxy-3-(8-(5-phenylthiophen-2-ylsulfonyl)-1-oxa-8-azaspiro[4.5]decan-3-ylamino)propoxy)benzenesulfonamide] — 4.1-fold higher, 156 nM
- CCNS(=O)(=O)c1cccc(OC[C@@H](O)CNC2COC3(CCN(S(=O)(=O)c4ccc5c(c4)N(C)CCO5)CC3)C2)c1 (stereo partly drawn) [Compound 234, N-ethyl-3-((2S)-2-hydroxy-3-(8-(4-methyl-3,4-dihydro-2H-benzo[b][1,4]oxazin-6-ylsulfonyl)-1-oxa-8-azaspiro[4.5]decan-3-ylamino)propoxy)benzenesulfonamide] — within 1.5-fold, 52.6 nM
- CCNS(=O)(=O)c1cccc(OC[C@@H](O)CNC2COC3(CCN(S(=O)(=O)c4ccc(Cl)c5nonc45)CC3)C2)c1 (stereo partly drawn) [Compound 235, 3-((2S)-3-(8-(7-chlorobenzo[c][1,2,5]oxadiazol-4-ylsulfonyl)-1-oxa-8-azaspiro[4.5]decan-3-ylamino)-2-hydroxypropoxy)-N-ethylbenzenesulfonamide] — 2.8-fold higher, 108 nM
- CNS(=O)(=O)c1cccc(OC[C@@H](O)CNC2COC3(CCN(S(=O)(=O)c4ccc(OC)cc4C)CC3)C2)c1 (stereo partly drawn) [Compound 236, 3-((2S)-2-hydroxy-3-(8-(4-methoxy-2-methylphenylsulfonyl)-1-oxa-8-azaspiro[4.5]decan-3-ylamino)propoxy)-N-methylbenzenesulfonamide] — within 1.5-fold, 54.9 nM
- CNS(=O)(=O)c1cccc(OC[C@@H](O)CNC2COC3(CCN(S(=O)(=O)c4cc(Br)ccc4C)CC3)C2)c1 (stereo partly drawn) [Compound 237, 3-((2S)-3-(8-(5-bromo-2-methylphenylsulfonyl)-1-oxa-8-azaspiro[4.5]decan-3-ylamino)-2-hydroxypropoxy)-N-methylbenzenesulfonamide] — within 1.5-fold, 42.8 nM
- CNS(=O)(=O)c1cccc(OC[C@@H](O)CNC2COC3(CCN(S(=O)(=O)c4ccc(C#N)c(Cl)c4)CC3)C2)c1 (stereo partly drawn) [Compound 239, 3-((2S)-3-(8-(3-chloro-4-cyanophenylsulfonyl)-1-oxa-8-azaspiro[4.5]decan-3-ylamino)-2-hydroxypropoxy)-N-methylbenzenesulfonamide] — 1.7-fold lower, 22.3 nM
- CNS(=O)(=O)c1cccc(OC[C@@H](O)CNC2COC3(CCN(S(=O)(=O)c4cc(Cl)ccc4C)CC3)C2)c1 (stereo partly drawn) [Compound 240, 3-((2S)-3-(8-(5-chloro-2-methylphenylsulfonyl)-1-oxa-8-azaspiro[4.5]decan-3-ylamino)-2-hydroxypropoxy)-N-methylbenzenesulfonamide] — within 1.5-fold, 28.4 nM
- CNS(=O)(=O)c1cccc(OC[C@@H](O)CNC2COC3(CCN(S(=O)(=O)c4cc(OC)ccc4F)CC3)C2)c1 (stereo partly drawn) [Compound 241, 3-((2S)-3-(8-(2-fluoro-5-methoxyphenylsulfonyl)-1-oxa-8-azaspiro[4.5]decan-3-ylamino)-2-hydroxypropoxy)-N-methylbenzenesulfonamide] — within 1.5-fold, 27.8 nM
- CNS(=O)(=O)c1cccc(OC[C@@H](O)CNC2COC3(CCN(S(=O)(=O)c4ccc(OC)c(C)c4C)CC3)C2)c1 (stereo partly drawn) [Compound 242, 3-((2S)-2-hydroxy-3-(8-(4-methoxy-2,3-dimethylphenylsulfonyl)-1-oxa-8-azaspiro[4.5]decan-3-ylamino)propoxy)-N-methylbenzenesulfonamide] — 11-fold higher, 420 nM
- CNS(=O)(=O)c1cccc(OC[C@@H](O)CNC2COC3(CCN(S(=O)(=O)c4cnn(-c5ccccc5)c4)CC3)C2)c1 (stereo partly drawn) [Compound 243, 3-((2S)-2-hydroxy-3-(8-(1-phenyl-1H-pyrazol-4-ylsulfonyl)-1-oxa-8-azaspiro[4.5]decan-3-ylamino)propoxy)-N-methylbenzenesulfonamide] — within 1.5-fold, 26.2 nM
- CNS(=O)(=O)c1cccc(OC[C@@H](O)CN[C@@H]2COC3(CCN(S(=O)(=O)c4cccc5nsnc45)CC3)C2)c1 [Compound 244, 3-((S)-3-((S)-8-(benzo[c][1,2,5]thiadiazol-4-ylsulfonyl)-1-oxa-8-azaspiro[4.5]decan-3-ylamino)-2-hydroxypropoxy)-N-methylbenzenesulfonamide] — 2-fold higher, 76.1 nM
- CNS(=O)(=O)c1cccc(OC[C@@H](O)CN[C@H]2COC3(CCN(S(=O)(=O)c4cccc5nsnc45)CC3)C2)c1 [Compound 245, 3-((S)-3-((R)-8-(benzo[c][1,2,5]thiadiazol-4-ylsulfonyl)-1-oxa-8-azaspiro[4.5]decan-3-ylamino)-2-hydroxypropoxy)-N-methylbenzenesulfonamide] — 2.5-fold lower, 15.5 nM
- CN(C)S(=O)(=O)c1cccc(OC[C@@H](O)CNC2COC3(CCN(S(=O)(=O)c4cccc(Cl)c4)CC3)C2)c1 (stereo partly drawn) [Compound 246, 3-((2S)-3-(8-(3-chlorophenylsulfonyl)-1-oxa-8-azaspiro[4.5]decan-3-ylamino)-2-hydroxypropoxy)-N,N-dimethylbenzenesulfonamide] — within 1.5-fold, 38.6 nM
- COc1ccc(S(=O)(=O)N2CCC3(CC2)CC(NC[C@H](O)COc2cccc(S(=O)(=O)N(C)C)c2)CO3)cc1C (stereo partly drawn) [Compound 247, 3-((2S)-2-hydroxy-3-(8-(4-methoxy-3-methylphenylsulfonyl)-1-oxa-8-azaspiro[4.5]decan-3-ylamino)propoxy)-N,N-dimethylbenzenesulfonamide] — within 1.5-fold, 27.2 nM
